The NIST ThermoML archive (doi:10.1021/acs.jced.5b00934)
± gives the expanded uncertainty stated by the source.

Settings: Liquid, Vibrating tube method

CCC(C)O (stereo not drawn) [butan-2-ol]
Settings	mass density [kg/m3]
323.15 K, 57941 kPa	822.2 ± 1
323.15 K, 65042 kPa	826.2 ± 1
323.16 K, 83 kPa	780.1 ± 0.8
323.16 K, 310 kPa	780.3 ± 0.8
323.16 K, 904 kPa	780.9 ± 0.8
323.16 K, 2023 kPa	781.9 ± 0.8
323.16 K, 2969 kPa	782.8 ± 0.8
323.16 K, 22069 kPa	798.7 ± 0.9
323.16 K, 30034 kPa	804.5 ± 0.9
323.16 K, 32030 kPa	805.9 ± 0.9
323.16 K, 33179 kPa	806.7 ± 0.9
323.16 K, 34081 kPa	807.3 ± 0.9
323.16 K, 35135 kPa	808 ± 0.9
323.16 K, 44962 kPa	814.4 ± 0.9
323.16 K, 48021 kPa	816.3 ± 1
323.16 K, 55018 kPa	820.5 ± 1
323.16 K, 60048 kPa	823.4 ± 1
323.16 K, 62109 kPa	824.6 ± 1
323.16 K, 66222 kPa	826.9 ± 1
328.15 K, 97 kPa	775.5 ± 0.8
328.15 K, 549 kPa	775.9 ± 0.8
328.15 K, 2980 kPa	778.3 ± 0.8
328.15 K, 6989 kPa	782.1 ± 0.8
328.15 K, 9026 kPa	784 ± 0.9
328.15 K, 10174 kPa	785 ± 0.9
328.15 K, 15005 kPa	789.1 ± 0.9
328.15 K, 17974 kPa	791.5 ± 0.9
328.15 K, 22112 kPa	794.8 ± 0.9
328.15 K, 28057 kPa	799.3 ± 0.9
328.15 K, 30020 kPa	800.7 ± 0.9
328.15 K, 32096 kPa	802.2 ± 0.9
328.15 K, 33090 kPa	802.9 ± 0.9
328.15 K, 34106 kPa	803.6 ± 0.9
328.15 K, 38003 kPa	806.3 ± 0.9
328.15 K, 40189 kPa	807.7 ± 0.9
328.15 K, 42227 kPa	809.1 ± 0.9
328.16 K, 325 kPa	775.7 ± 0.8
328.16 K, 909 kPa	776.3 ± 0.8
328.16 K, 1025 kPa	776.4 ± 0.8
328.16 K, 2032 kPa	777.5 ± 0.8
328.16 K, 4986 kPa	780.3 ± 0.8
328.16 K, 12064 kPa	786.6 ± 0.9
328.16 K, 20081 kPa	793.3 ± 0.9
328.16 K, 25008 kPa	797.1 ± 0.9
328.16 K, 33187 kPa	802.9 ± 0.9
328.16 K, 35148 kPa	804.3 ± 0.9
328.16 K, 45203 kPa	811.1 ± 1
328.16 K, 48119 kPa	812.8 ± 1
328.16 K, 50027 kPa	814 ± 1
328.16 K, 52217 kPa	815.4 ± 1
328.16 K, 55140 kPa	817.1 ± 1
328.16 K, 58016 kPa	818.7 ± 1
328.16 K, 59968 kPa	819.8 ± 1
328.16 K, 61968 kPa	820.9 ± 1
328.16 K, 65013 kPa	822.7 ± 1
328.16 K, 66143 kPa	823.3 ± 1
333.15 K, 100 kPa	770.5 ± 0.8
333.15 K, 350 kPa	770.7 ± 0.8
333.15 K, 494 kPa	770.9 ± 0.8
333.15 K, 901 kPa	771.3 ± 0.8
333.15 K, 1016 kPa	771.5 ± 0.8
333.15 K, 2000 kPa	772.4 ± 0.8
333.15 K, 3021 kPa	773.4 ± 0.8
333.15 K, 5004 kPa	775.4 ± 0.8
333.15 K, 7066 kPa	777.4 ± 0.8
333.15 K, 8994 kPa	779.1 ± 0.9
333.15 K, 10031 kPa	780 ± 0.9
333.15 K, 11980 kPa	781.8 ± 0.9
333.15 K, 15020 kPa	784.5 ± 0.9
333.15 K, 17985 kPa	786.9 ± 0.9
333.15 K, 22042 kPa	790.2 ± 0.9
333.15 K, 25059 kPa	792.7 ± 0.9
333.15 K, 28048 kPa	794.9 ± 0.9
333.15 K, 29961 kPa	796.3 ± 0.9
333.15 K, 32126 kPa	798 ± 0.9
333.15 K, 32780 kPa	798.4 ± 0.9
333.15 K, 32804 kPa	798.4 ± 0.9
333.15 K, 33981 kPa	799.2 ± 0.9
333.15 K, 35081 kPa	800 ± 0.9
333.15 K, 38040 kPa	802.1 ± 0.9
333.15 K, 39970 kPa	803.4 ± 0.9
333.15 K, 45112 kPa	806.9 ± 1
333.15 K, 47953 kPa	808.7 ± 1
333.15 K, 50048 kPa	810.1 ± 1
333.15 K, 52052 kPa	811.3 ± 1
333.15 K, 55007 kPa	813.2 ± 1
333.15 K, 62024 kPa	817.4 ± 1
333.15 K, 64970 kPa	819.1 ± 1
333.15 K, 66117 kPa	819.8 ± 1
333.16 K, 20151 kPa	788.8 ± 0.9
333.16 K, 42099 kPa	804.9 ± 0.9
333.16 K, 58002 kPa	815 ± 1
333.16 K, 60019 kPa	816.2 ± 1
338.15 K, 99 kPa	765.5 ± 0.8
338.15 K, 292 kPa	765.7 ± 0.8
338.15 K, 539 kPa	766 ± 0.8
338.15 K, 892 kPa	766.4 ± 0.8
338.15 K, 1007 kPa	766.5 ± 0.8
338.15 K, 3160 kPa	768.7 ± 0.8
338.15 K, 4911 kPa	770.5 ± 0.8
338.15 K, 10039 kPa	775.5 ± 0.9
338.15 K, 12002 kPa	777.3 ± 0.9
338.15 K, 15149 kPa	780.1 ± 0.9
338.15 K, 18051 kPa	782.6 ± 0.9
338.15 K, 19986 kPa	784.2 ± 0.9
338.15 K, 21999 kPa	785.9 ± 0.9
338.15 K, 32975 kPa	794.4 ± 0.9
338.15 K, 35130 kPa	796 ± 0.9
338.15 K, 40077 kPa	799.5 ± 0.9
338.15 K, 44943 kPa	802.8 ± 1
338.15 K, 48022 kPa	804.9 ± 1
338.15 K, 52052 kPa	807.5 ± 1
338.15 K, 55069 kPa	809.5 ± 1
338.15 K, 58033 kPa	811.3 ± 1
338.15 K, 60108 kPa	812.6 ± 1
338.15 K, 62047 kPa	813.7 ± 1
338.15 K, 65005 kPa	815.5 ± 1
338.15 K, 66128 kPa	816.2 ± 1
338.16 K, 2082 kPa	767.6 ± 0.8
338.16 K, 6964 kPa	772.5 ± 0.8
338.16 K, 8976 kPa	774.5 ± 0.9
338.16 K, 24990 kPa	788.3 ± 0.9
338.16 K, 27960 kPa	790.7 ± 0.9
338.16 K, 30065 kPa	792.3 ± 0.9
338.16 K, 31895 kPa	793.7 ± 0.9
338.16 K, 32982 kPa	794.5 ± 0.9
338.16 K, 33953 kPa	795.1 ± 0.9
338.16 K, 37933 kPa	798 ± 0.9
338.16 K, 41987 kPa	800.8 ± 1
338.16 K, 50029 kPa	806.2 ± 1
343.15 K, 90 kPa	760.2 ± 0.8
343.15 K, 290 kPa	760.5 ± 0.8
343.15 K, 469 kPa	760.6 ± 0.8
343.15 K, 910 kPa	761.1 ± 0.8
343.15 K, 1032 kPa	761.3 ± 0.8
343.15 K, 1994 kPa	762.3 ± 0.8
343.15 K, 4978 kPa	765.5 ± 0.8
343.15 K, 7040 kPa	767.6 ± 0.8
343.15 K, 9056 kPa	769.6 ± 0.9
343.15 K, 10137 kPa	770.7 ± 0.9
343.15 K, 12089 kPa	772.5 ± 0.9
343.15 K, 14318 kPa	774.6 ± 0.9
343.15 K, 15186 kPa	775.4 ± 0.9
343.15 K, 17997 kPa	777.9 ± 0.9
343.15 K, 19975 kPa	779.7 ± 0.9
343.15 K, 22054 kPa	781.5 ± 0.9
343.15 K, 25145 kPa	784.1 ± 0.9
343.15 K, 27969 kPa	786.3 ± 0.9
343.15 K, 30130 kPa	788.1 ± 0.9
343.15 K, 31848 kPa	789.4 ± 0.9
343.15 K, 32904 kPa	790.1 ± 0.9
343.15 K, 33014 kPa	790.3 ± 0.9
343.15 K, 33950 kPa	790.9 ± 0.9
343.15 K, 35008 kPa	791.7 ± 0.9
343.15 K, 38168 kPa	794.1 ± 0.9
343.15 K, 39957 kPa	795.4 ± 0.9
343.15 K, 42001 kPa	796.8 ± 1
343.15 K, 44975 kPa	798.9 ± 1
